In paper PMC11207335, “In Vitro Metabolism and Transport Characteristics of Zastaprazan” (Pharmaceutics, 2024):
Read-outs that look alike come from different tables or passages of the source.

Key:
OAT1 = molecular target: T1, OAT1 (Homo sapiens, UniProt Q4U2R8); test: Uptake into HEK293 cells expressing OAT1; details: for Uptake Rate / Fold-Change: 6 μM; for Fold-Change: vs HEK293-mock; for Substrate: OAT1
T1 sequence (Q4U2R8 1-563): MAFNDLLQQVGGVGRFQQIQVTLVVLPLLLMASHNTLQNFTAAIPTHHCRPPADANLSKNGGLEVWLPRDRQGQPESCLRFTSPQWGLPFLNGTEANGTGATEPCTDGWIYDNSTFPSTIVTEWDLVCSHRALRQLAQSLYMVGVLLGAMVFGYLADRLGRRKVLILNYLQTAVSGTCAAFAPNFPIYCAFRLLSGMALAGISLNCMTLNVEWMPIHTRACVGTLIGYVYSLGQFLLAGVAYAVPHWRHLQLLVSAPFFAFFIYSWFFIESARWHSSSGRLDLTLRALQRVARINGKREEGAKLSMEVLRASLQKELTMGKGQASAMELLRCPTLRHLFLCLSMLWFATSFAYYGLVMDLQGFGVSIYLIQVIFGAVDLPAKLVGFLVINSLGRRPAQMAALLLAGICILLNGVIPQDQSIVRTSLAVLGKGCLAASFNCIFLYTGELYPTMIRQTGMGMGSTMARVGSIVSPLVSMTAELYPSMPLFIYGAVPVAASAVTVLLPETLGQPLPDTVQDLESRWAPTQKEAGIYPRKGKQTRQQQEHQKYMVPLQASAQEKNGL

P-gp = molecular target: T2, P-gp (Homo sapiens, UniProt P08183); test: Permeability in LLC-PK1-P-gp cells; assay type: in vitro ADME; details: for Substrate: P-gp; for Papp A→B at 1 h, 4 µM / Papp B→A at 1 h, 4 µM / efflux ratio at 1 h, 4 µM: pig, LLC-PK1-P-gp; for efflux ratio at 1 h, 4 µM: read-out: ER
T2 construct: host or cells: LLC-PK1 (porcine kidney cells)
T2 sequence (P08183 whole entry): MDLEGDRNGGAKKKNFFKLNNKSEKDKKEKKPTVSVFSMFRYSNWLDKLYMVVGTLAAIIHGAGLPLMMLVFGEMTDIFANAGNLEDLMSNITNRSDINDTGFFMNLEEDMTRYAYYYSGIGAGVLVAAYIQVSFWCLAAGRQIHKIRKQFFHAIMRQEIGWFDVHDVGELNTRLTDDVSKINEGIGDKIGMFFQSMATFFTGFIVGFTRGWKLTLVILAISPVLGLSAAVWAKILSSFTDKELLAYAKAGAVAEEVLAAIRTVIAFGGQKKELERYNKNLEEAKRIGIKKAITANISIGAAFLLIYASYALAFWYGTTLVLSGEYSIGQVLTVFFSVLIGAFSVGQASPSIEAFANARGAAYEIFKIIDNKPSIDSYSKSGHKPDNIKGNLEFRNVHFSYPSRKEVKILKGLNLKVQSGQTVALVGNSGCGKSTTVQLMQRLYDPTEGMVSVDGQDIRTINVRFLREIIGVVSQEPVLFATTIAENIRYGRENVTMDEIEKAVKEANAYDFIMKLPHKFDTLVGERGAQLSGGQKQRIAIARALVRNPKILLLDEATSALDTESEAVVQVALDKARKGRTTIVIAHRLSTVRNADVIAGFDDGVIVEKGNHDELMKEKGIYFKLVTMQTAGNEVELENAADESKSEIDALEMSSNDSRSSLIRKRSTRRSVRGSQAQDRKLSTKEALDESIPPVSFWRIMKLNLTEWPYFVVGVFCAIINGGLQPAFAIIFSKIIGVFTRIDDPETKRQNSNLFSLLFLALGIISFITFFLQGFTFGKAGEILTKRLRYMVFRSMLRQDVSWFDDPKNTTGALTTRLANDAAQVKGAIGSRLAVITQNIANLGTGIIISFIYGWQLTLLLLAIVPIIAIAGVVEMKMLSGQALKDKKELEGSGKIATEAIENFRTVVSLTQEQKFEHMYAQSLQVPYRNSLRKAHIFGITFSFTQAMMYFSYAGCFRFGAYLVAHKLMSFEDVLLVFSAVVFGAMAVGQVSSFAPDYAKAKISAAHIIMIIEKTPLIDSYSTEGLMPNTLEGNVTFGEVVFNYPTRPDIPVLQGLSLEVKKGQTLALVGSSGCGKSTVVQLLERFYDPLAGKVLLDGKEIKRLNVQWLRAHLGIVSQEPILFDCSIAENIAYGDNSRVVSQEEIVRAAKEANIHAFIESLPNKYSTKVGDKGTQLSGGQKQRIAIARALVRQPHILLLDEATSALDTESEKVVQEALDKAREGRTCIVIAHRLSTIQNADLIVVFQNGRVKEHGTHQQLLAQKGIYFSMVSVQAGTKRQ
Description: LLC-PK1-P-gp or BCRP cells were seeded on collagen-coated 24-transwell membranes at a density of 2.5 × 10^5 cells/mL and maintained at 37 °C in a humidified atmosphere with 5% CO2/95% air for 5 days in Medium 199 supplemented with 10% […], 50 μg/mL of gentamycin, and 50 μg/mL of hygromycin. The culture medium was replaced every other day. On the day of the experiment, the growth medium was discarded, and the attached cells were washed with prewarmed HBSS (pH 7.4) and preincubated with HBSS for 20 min at 37 °C. […] Aliquots (0.1 mL) in the apical side were transferred to clean tubes every 15 min for 1 h and replaced with an equal volume of fresh HBSS.
LLC-PK1-P-gp or BCRP cells were seeded on collagen-coated 24-transwell membranes at a density of 2.5 × 10^5 cells/mL and cultured for 5 days. The growth medium was discarded on the day of the experiment, and the attached cells were washed with prewarmed HBSS (pH 7.4) and preincubated with HBSS for 20 min at 37 °C. […] Aliquots (0.1 mL) in the apical side were transferred to clean tubes every 15 min for 1 h and replaced with an equal volume of fresh HBSS. Aliquots (30 μL) of each sample were vortex-mixed with 90 μL of IS solution for 1 min, and then centrifugation was performed at 13,500 rpm at 4 °C for 5 min. Aliquots (5 μL) of the supernatant were injected into the LC-MS/MS for analysis.
The permeability (Papp) was calculated from the following equation [23, 24]: Papp(cm/s)=transport ratenmol/s/JP−1366 or M1 concentration (μM)×surface area of membrane (cm^2)

OAT3 = molecular target: T3, OAT3 (Homo sapiens, UniProt Q8TCC7); test: Uptake into HEK293 cells expressing OAT3; details: for Uptake Rate / Fold-Change: 6 μM; for Fold-Change: vs HEK293-mock; for Substrate: OAT3
T3 sequence (Q8TCC7 1-542): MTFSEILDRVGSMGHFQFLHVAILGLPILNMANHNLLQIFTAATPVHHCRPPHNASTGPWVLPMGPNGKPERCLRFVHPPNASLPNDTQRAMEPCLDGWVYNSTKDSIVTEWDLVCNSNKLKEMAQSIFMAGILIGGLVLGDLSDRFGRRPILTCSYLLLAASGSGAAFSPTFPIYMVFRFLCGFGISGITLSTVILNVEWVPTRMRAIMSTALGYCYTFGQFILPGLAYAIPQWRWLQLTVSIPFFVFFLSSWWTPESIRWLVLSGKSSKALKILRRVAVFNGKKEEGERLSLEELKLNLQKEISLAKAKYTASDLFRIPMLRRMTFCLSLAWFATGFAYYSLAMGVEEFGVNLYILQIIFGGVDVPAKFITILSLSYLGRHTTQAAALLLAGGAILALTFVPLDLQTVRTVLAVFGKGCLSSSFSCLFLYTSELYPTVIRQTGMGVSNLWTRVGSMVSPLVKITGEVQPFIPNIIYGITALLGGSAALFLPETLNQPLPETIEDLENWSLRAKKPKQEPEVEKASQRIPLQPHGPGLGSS

OATP1B1 = molecular target: T4, OATP1B1 (Homo sapiens, UniProt Q9Y6L6); test: Uptake into HEK293 cells expressing OATP1B1; details: for Uptake Rate / Fold-Change: 6 μM; for Fold-Change: vs HEK293-mock; for Substrate: OATP1B1
T4 sequence (Q9Y6L6 1-691): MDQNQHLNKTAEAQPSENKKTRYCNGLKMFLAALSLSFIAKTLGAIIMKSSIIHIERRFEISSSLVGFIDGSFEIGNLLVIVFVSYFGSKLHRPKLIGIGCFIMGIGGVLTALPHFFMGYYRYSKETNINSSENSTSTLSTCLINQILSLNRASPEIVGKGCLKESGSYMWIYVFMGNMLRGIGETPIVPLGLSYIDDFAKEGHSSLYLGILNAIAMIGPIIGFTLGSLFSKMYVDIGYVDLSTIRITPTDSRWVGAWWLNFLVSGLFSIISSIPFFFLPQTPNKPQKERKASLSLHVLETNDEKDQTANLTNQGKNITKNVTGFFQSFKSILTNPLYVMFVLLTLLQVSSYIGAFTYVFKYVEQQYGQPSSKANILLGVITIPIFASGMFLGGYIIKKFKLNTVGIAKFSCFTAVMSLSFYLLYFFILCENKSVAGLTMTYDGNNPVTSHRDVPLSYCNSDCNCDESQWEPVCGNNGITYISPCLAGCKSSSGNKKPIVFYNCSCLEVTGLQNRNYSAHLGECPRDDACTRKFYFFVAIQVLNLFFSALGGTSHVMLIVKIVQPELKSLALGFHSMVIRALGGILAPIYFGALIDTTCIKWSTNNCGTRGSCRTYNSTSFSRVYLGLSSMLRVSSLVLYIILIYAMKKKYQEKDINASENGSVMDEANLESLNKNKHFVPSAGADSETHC

[1] = pH 7.4, with CsA 20 μM, CsA 20 μM

| Uptake Rate (OAT1; HEK293-OAT1, control) [pmol/min/10^5 Cells] | Uptake Rate (OAT1; HEK293-OAT1, probenecid 20 μM) [pmol/min/10^5 Cells] | Substrate (OAT1) | Substrate (P-gp) | Papp A→B at 1 h, 4 µM (P-gp; [1]) [×10⁻⁶ cm/s] | Papp B→A at 1 h, 4 µM (P-gp; [1]) [×10⁻⁶ cm/s] | Papp A→B at 1 h, 4 µM (P-gp; pH 7.4, Control) [×10⁻⁶ cm/s] | Papp B→A at 1 h, 4 µM (P-gp; pH 7.4, Control) [×10⁻⁶ cm/s] | Uptake Rate (OAT3; HEK293-OAT3, control) [pmol/min/10^5 Cells] | Uptake Rate (OAT3; HEK293-OAT3, probenecid 20 μM) [pmol/min/10^5 Cells] | Substrate (OAT3) | Uptake Rate (OATP1B1; HEK293-OATP1B1, control) [pmol/min/10^5 Cells] | Uptake Rate (OATP1B1; HEK293-OATP1B1, rifampin 20 μM) [pmol/min/10^5 Cells] | Substrate (OATP1B1) | SMILES | also measured |
| --- | --- | --- | --- | --- | --- | --- | --- | --- | --- | --- | --- | --- | --- | --- | --- |
| 68.04 ± 2.96 | 61.04 ± 5.29 | No | Yes | 18.5 ± 0.96 | 62.8 ± 5.26 | 6.99 ± 0.6 | 99.3 ± 1.66 | 58.53 ± 3.71 | 52.47 ± 2.27 | No | 52.79 ± 2.39 | 53.60 ± 3.73 | No | Cc1cccc(CO)c1CNc1cc(C(=O)N2CCC2)cn2c(C)c(C)nc12 [M1, azetidin-1-yl(8-((2-(hydroxymethyl)-6-methyl-benzyl)amino)-2,3-dimethylimidazo[1,2-a]pyridin-6-yl)methanone] | Fold-Change (OAT1; HEK293-OAT1, control): 1.3; Fold-Change (OAT1; HEK293-OAT1, probenecid 20 μM): 1.2; efflux ratio at 1 h, 4 µM (P-gp; [1]): 3.4; efflux ratio at 1 h, 4 µM (P-gp; pH 7.4, Control): 14.2; Fold-Change (OAT3; HEK293-OAT3, control): 1.1; Fold-Change (OAT3; HEK293-OAT3, probenecid 20 μM): 1.0; Fold-Change (OATP1B1; HEK293-OATP1B1, control): 1.0; Fold-Change (OATP1B1; HEK293-OATP1B1, rifampin 20 μM): 1.0 |
| 68.04 ± 2.96 | 61.04 ± 5.29 | No | No | 20.7 ± 1.31 | 32 ± 0.94 | 20.3 ± 0.53 | 25.6 ± 1.71 | 58.53 ± 3.71 | 52.47 ± 2.27 | No | 52.79 ± 2.39 | 53.60 ± 3.73 | No | Cc1cccc(C)c1CNc1cc(C(=O)N2CCC2)cn2c(C)c(C)nc12 [JP-1366, 1-azetidinyl(8-(((2,6-dimethylphenyl)methyl)amino)-2,3-dimethylimidazo(1,2-a)pyridin-6-yl)methanone] |  |
